Key:
Assay type in all cases: in vivo
[1] = tested on: Aphis craccivoral; assay: Insecticidal activities to aphids, immersion method; settings: for Aphis craccivoral Mortality (%) 500 ppm: in vivo
Method in brief: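 Wingless adult aphids feeding on bean sprouts were dipped 5 s in 500 ppm compound (DMF stock diluted in 0.2 mL/L aqueous Triton X-100), blotted and held at 23° C. Dead counted at 24 h, three replicates; mortality corrected against Triton-only controls.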

[2] = tested on: Nilaparvata lugens; assay: Insecticidal activities to plant hopper, spraying method; settings: for Nilaparvata lugens Mortality (%) 500 ppm: in vivo
Method in brief: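 Nilaparvata lugens, 10 insects per tumbler, sprayed with 2 ml compound in acetone at 0.79-500 ppm, three replicates, aqueous acetone control. Dead insects counted after 24 h; mortality corrected against control survival.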

[3] = tested on: Pseudaletia separate Walker; assay: Insecticidal activities to armyworm, leaf dipping and feeding
Protocol: (§1) Mortality (%)=(the number of the survival aphis in control group−the number of the survival aphis in the treatment group)/the number of the survival aphis in control group×100%
(3): Insecticidal Activities to Armyworm
Armyworm (Pseudaletia separate Walker) was tested by the way of leaf dipping and feeding. The test compound was exactly formulated with acetone into solutions having concentrations of 500, 250, 100, 50, 25, 12.5, 6.25, 3.13 and 1.57 ppm, respectively. Aqueous acetone solution was used as control. Fresh maize leaves were immersed in the solution for 3 seconds, dried at room temperature, and fed to the tested insects. Each treatment was tested with 10 insects and repeated for 3 tumblers (3 times). The number of killed insects was counted after 24 hours to calculate the mortality according to the above mentioned formula.

[4] = tested on: Plutella xylostella; assay: Insecticidal activities to diamondback moth, feeding dipped leaves; settings: for Plutella xylostella Mortality (%) 500 ppm: in vivo
Protocol: as §1
(4): Insecticidal Activities to Diamondback Moth
Diamondback moth (Plutella xylostella) was tested by the way of feeding dippedleaves. Fresh cabbage leaves were immersed in above mentioned solution for 3 seconds, dried at room temperature, and fed to the tested insects. Each treatment was tested with 10 insects and repeated for 3 tumblers (3 times), while water was used as control. The number of killed insects was counted after 24 hours to calculate the mortality according to the above mentioned formula.

SMILES	Aphis craccivoral Mortality (%) 500 ppm [1] [%]	Nilaparvata lugens Mortality (%) 500 ppm [2] [%]	Pseudaletia separate Walker Mortality (%) 500 ppm ([3]; in vivo) [%]	Plutella xylostella Mortality (%) 500 ppm [4] [%]	other results
O=[N+]([O-])C(=Cc1ccc(CO)o1)C1=NCCN1Cc1ccc(Cl)nc1 [Compound 15]	100	100	100	100	–
C[N+]1=C(C(=Cc2cccs2)[N+](=O)[O-])N(Cc2cnc(Cl)s2)CC1.[Cl-] [Compound 280]	100	100	100	100	–
O=[N+]([O-])C(=Cc1ccoc1)C1=NCCN1CC1CCOC1 (centres unmarked) [Compound 92]	80	100	100	100	–
Cc1ccc(C=C(C2=NCCCN2Cc2ccc(Cl)nc2)[N+](=O)[O-])o1 [Compound 57]	100	78	100	100	–
N#CC(=Cc1ccoc1)C1=NCCN1Cc1ccc(Cl)nc1 [Compound 141]	100	100	100	100	–
CC(c1ccc(Cl)nc1)N1CCN=C1C(=Cc1ccc(Cl)s1)[N+](=O)[O-] (racemic) [Compound 130]	100	100	100	76	–
Cc1ccc(C=C(C2=NCCN2Cc2ccc(Cl)nc2)[N+](=O)[O-])cn1 [Compound 42]	45	36	87	90.	–
CC[N+]1=C(/C(=C\c2ccc[nH]2)[N+](=O)[O-])N(Cc2ccc(Cl)nc2)CC1.[Cl-] [Compound 295]	100	100	100	100	–
O=[N+]([O-])C(=Cc1ccc([N+](=O)[O-])o1)C1=NCCN1CC1CCOC1 (centres unmarked) [Compound 93]	78	87	100	96	–
O=[N+]([O-])C(=Cc1ccc(CO)s1)C1=NCCN1Cc1ccc(Cl)nc1 [Compound 30]	100	100	100	100	–
N#CC(=Cc1sc(Cl)cc1Cl)C1=NCCN1Cc1ccc(Cl)nc1 [Compound 150]	–	–	–	–	Aphis craccivoral Mortality (%) ([1]; 500 ppm, immersion method): 95%; Nilaparvata lugens Mortality (%) ([2]; 500 ppm, spraying method, counted after 24 hours): 100%; Pseudaletia separate Walker Mortality (%) ([3]; 500 ppm, maize leaf dipping and feeding, counted after 24 hours): 100%; Plutella xylostella Mortality (%) ([4]; 500 ppm, feeding dipped cabbage leaves, counted after 24 hours): 100%
O=[N+]([O-])C(=Cc1ccc(Br)o1)C1=NCCCN1Cc1ccc(Cl)nc1 [Compound 50]	100	100	100	100	–
CC[N+]1=C(C(=Cc2ccsc2)[N+](=O)[O-])N(Cc2ccc(Cl)nc2)CC1.[Cl-] [Compound 292]	100	100	100	100	–
O=[N+]([O-])C(=Cc1ccoc1)C1=NCCN1Cc1ccccc1 [Compound 104]	96	100	79	81	–
CC(=C(C1=NCCN1Cc1ccc(Cl)nc1)[N+](=O)[O-])c1ccc([N+](=O)[O-])s1 [Compound 117]	83	88	77	86	–
O=[N+]([O-])C(=Cc1ccc([N+](=O)[O-])o1)C1=NCCCN1Cc1ccc(Cl)nc1 [Compound 48]	100	100	100	100	–

SMILES	Aphis craccivoral Mortality (%) 500 ppm [1] [%]	Nilaparvata lugens Mortality (%) 500 ppm [2] [%]	Pseudaletia separate Walker Mortality (%) 500 ppm ([3]; in vivo) [%]	Plutella xylostella Mortality (%) 500 ppm [4] [%]	other results
CC(=C(C1=NCCN1Cc1ccc(Cl)nc1)[N+](=O)[O-])c1ccc(Cl)s1 [Compound 118]	93	90	19	23	–
O=[N+]([O-])C(=Cc1cc(Cl)cs1)C1=NCCN1Cc1cnc(Cl)s1 [Compound 88]	100	100	100	100	–
O=[N+]([O-])C(=Cc1cccs1)C1=NCCN1Cc1cnc(Cl)s1 [Compound 83]	100	100	100	100	–
C[N+]1=C(C(=Cc2cc(Cl)c(Cl)s2)[N+](=O)[O-])N(Cc2ccc(Cl)nc2)CC1.[Cl-] [Compound 266]	100	100	100	100	–
O=[N+]([O-])C(=Cc1cc(Cl)c(Cl)o1)C1=NCCN1Cc1ccc(Cl)nc1 [Compound 8]	100	100	100	100	–
Cc1coc(C=C(C2=NCCN2Cc2ccc(Cl)nc2)[N+](=O)[O-])c1 [Compound 13]	100	100	100	100	–
C[N+]1=C(C(=Cc2ccoc2)[N+](=O)[O-])N(Cc2cnc(Cl)s2)CC1.[Cl-] [Compound 276]	100	100	100	100	–
O=[N+]([O-])C(=Cc1oc(Cl)cc1Cl)C1=NCCN1Cc1ccccc1 [Compound 109]	91	100	60	56	–
O=[N+]([O-])/C(=C/c1ccc([N+](=O)[O-])o1)C1=NCCN1Cc1cnc(Cl)s1 [Compound 70]	–	–	–	–	mortality at 500 ppm ([1]; Aphis, read-out: Aphis craccivoral Mortality (%) 500 ppm): 100%; mortality at 500 ppm ([2]; Nilaparvata lugens, 24 h, read-out: Nilaparvata lugens Mortality (%) 500 ppm): 100%; Pseudaletia separate Walker Mortality (%) 500 ppm ([3]; 500 ppm, leaf dipping and feeding, counted after 24 hours): 98%; mortality at 500 ppm ([4]; Plutella xylostella, 24 h, read-out: Plutella xylostella Mortality (%) 500 ppm): 100%
CCc1ccc(C=C(C2=[N+](C)CCN2Cc2ccc(Cl)nc2)[N+](=O)[O-])o1.[Cl-] [Compound 257]	100	100	100	100	–
CC(=C(C1=NCCN1Cc1ccc(Cl)nc1)[N+](=O)[O-])c1ccc(Br)s1 [Compound 119]	75	91	46	87	–
O=[N+]([O-])C(=Cc1ccc(Cl)o1)C1=NCCCN1Cc1ccc(Cl)nc1 [Compound 49]	100	100	100	100	–
O=[N+]([O-])C(=Cc1ccc(Br)s1)C1=NCCCN1Cc1ccc(Cl)nc1 [Compound 65]	73	100	92	100	–
O=[N+]([O-])C(=Cc1ccc(Cl)o1)C1=NCCN1Cc1ccc(Cl)nc1 [Compound 4]	100	100	100	100	–
C[N+]1=C(C(=Cc2cc(Cl)co2)[N+](=O)[O-])N(Cc2ccc(Cl)nc2)CC1.[Cl-] [Compound 249]	100	100	100	100	–
O=[N+]([O-])C(=Cc1cc(Cl)c(Cl)o1)C1=NCCCN1Cc1ccc(Cl)nc1 [Compound 53]	100	100	100	100	–

Reference: patent US8232407B2, “Nitrogenous heterocyclic compounds with insecticidal activity, and the preparation and use thereof” (East China University of Science and Technology, priority 2008, dated 2012)
